The values that follow are results of earlier work, collected in patent US7670617B2, “Sequential drug delivery systems” (CIMA Labs Inc., priority 2001, dated 2010).

SMILES strings stand for the structures.

For the first series the following is noted: in animals.
`CC(NC(C)(C)C)C(=O)c1cccc(Cl)c1.Cl` (centres unmarked) [Bupropion:HCI]: the “BIOAVAILABILITY (%)” value is reported as 5%-20%.

The conditions of another series: Nasal Spray.
`O=C(O)C(O)C(O)C(=O)O.Oc1ccc2c(c1)[C@@]13CCCC[C@@]1(O)[C@@H](C2)N(CC1CCC1)CC3` [Butorphanol Tartrate]: the “BIOAVAILABILITY (%)” value is on record as 60%-70%.

The series is the same for the next values; noted with them: in vivo.
For `CCOC(=O)[C@H](CCc1ccccc1)N[C@H]1CCc2ccccc2N(CC(=O)O)C1=O.Cl` [Benazepril:HCI], the “BIOAVAILABILITY (%)” value is on record as 37%. Regarding `CC(C)C[C@H]1C(=O)N2CCC[C@H]2[C@]2(O)O[C@](NC(=O)[C@@H]3C=C4c5cccc6[nH]c(Br)c(c56)C[C@H]4N(C)C3)(C(C)C)C(=O)N12` [Bromocriptine], the “BIOAVAILABILITY (%)” value was 28%.

As for `COc1ccccc1OCCNCC(O)COc1cccc2[nH]c3ccccc3c12` (centres unmarked) [Carvedilol], the “BIOAVAILABILITY (%)” value was 25-35%. Turning to `COc1cc2nc(N3CCN(C(=O)C4COc5ccccc5O4)CC3)nc(N)c2cc1OC` (centres unmarked) [Doxazosin], the “BIOAVAILABILITY (%)” value was 65%.

In the case of `CN(C)CCC=C1c2ccccc2COc2ccccc21` [Doxepin], the “BIOAVAILABILITY (%)” value was 27 ± 10%. As to `CCOC(=O)[C@H](CCc1ccccc1)N[C@@H](C)C(=O)N1CCC[C@H]1C(=O)O` [Enalapril], the “BIOAVAILABILITY (%)” value is given as 41-60%.

As to `CC(C)(C)NC(=O)[C@H]1CC[C@H]2[C@@H]3CC[C@H]4NC(=O)C=C[C@]4(C)[C@H]3CC[C@]12C` [Finasteride], the “BIOAVAILABILITY (%)” value is listed as 63%.

As to `CC(CCc1ccccc1)NCC(O)c1ccc(O)c(C(N)=O)c1` (centres unmarked) [Labetalol], the “BIOAVAILABILITY (%)” value is 18 ± 5%. As for `CCOC(=O)[C@H](CCc1ccccc1)N[C@@H](C)C(=O)N1Cc2cc(OC)c(OC)cc2C[C@H]1C(=O)O` [Moexipril], the “BIOAVAILABILITY (%)” value is 13%. Consider `Oc1ccc2c3c1O[C@H]1[C@@H](O)CC[C@@]4(O)[C@@H](C2)N(CC2CCC2)CC[C@]314` [Nalbuphine], for which the “BIOAVAILABILITY (%)” value is on record as 16 (±8) %. For `CN1CCCC1c1cccnc1` (centres unmarked) [Nicotine], the “BIOAVAILABILITY (%)” value is on record as 16.7 (±8.6%). In the case of `Cc1nccn1CC1CCc2c(c3ccccc3n2C)C1=O.Cl` (centres unmarked) [Ondansetron:HCI], the “BIOAVAILABILITY (%)” value is 55%. In the case of `CC(C)NCC(O)COc1cccc2ccccc12.Cl` (centres unmarked) [Propranolol:HCI], the “BIOAVAILABILITY (%)” value is listed as 26%. For the molecule `CCOC(=O)[C@H](CCc1ccccc1)N[C@@H](C)C(=O)N1Cc2ccccc2C[C@H]1C(=O)O.Cl` [Quinapril•HCI], the “BIOAVAILABILITY (%)” value is on record as 60%. On to `CC(C)(C)NCC(O)c1cc(O)cc(O)c1` (centres unmarked) [Terbutaline sulphate], for which the “BIOAVAILABILITY (%)” value is recorded as 30-70%.

Conditions in another series: not given
In the case of `CN1CCc2cccc3c2[C@H]1Cc1ccc(O)c(O)c1-3` [Apomorphine], the pKa (as a rule, the pH at which an ionisable group is half protonated) was 7. On to `CC(C)C[C@H]1C(=O)N2CCC[C@H]2[C@]2(O)O[C@](NC(=O)[C@@H]3C=C4c5cccc6[nH]c(Br)c(c56)C[C@H]4N(C)C3)(C(C)C)C(=O)N12` [Bromocriptine], for which the pKa is given as 4.9.

`CC(C)(C)NC(=O)[C@@H]1C[C@@H]2CCCC[C@@H]2CN1C[C@@H](O)[C@H](Cc1ccccc1)NC(=O)[C@H](CC(N)=O)NC(=O)c1ccc2ccccc2n1` [Saquinavir]: the pKa was 7.
